Reference: paper PMC12481576, “Barbituric Acid Derivatives as Covalent Inhibitors of Leishmania braziliensis Dihydroorotate Dehydrogenase” (Journal of Medicinal Chemistry, 2025)
Several values for one entry are separate records, joined by “and”; a condition that tells them apart may be missing. Equal values may be shown once. Read-outs that look alike come from different tables or passages of the source.

Key:
[1] = biological target: LbDHODH (Leishmania braziliensis, UniProt E9AI53); assay: biochemical; conditions: for IC50: LbDHODH
LbDHODH, sequence (E9AI53 entry or part of it): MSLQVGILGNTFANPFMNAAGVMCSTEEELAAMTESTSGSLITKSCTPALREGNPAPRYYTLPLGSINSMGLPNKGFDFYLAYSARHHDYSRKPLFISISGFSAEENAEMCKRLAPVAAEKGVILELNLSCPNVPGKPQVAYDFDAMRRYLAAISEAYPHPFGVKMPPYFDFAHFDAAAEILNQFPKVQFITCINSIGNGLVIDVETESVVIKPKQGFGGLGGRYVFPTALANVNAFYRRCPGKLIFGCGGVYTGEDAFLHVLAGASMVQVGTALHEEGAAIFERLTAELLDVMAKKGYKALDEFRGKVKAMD
Summary of the method: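 Covalent inactivation constant kinact/KI came from linear fitting of early kobs values against inhibitor concentration. Activity followed by A610 (DCIP, DHO substrate) every 3 s over 60 s in Tris pH 8.15/KCl/Triton X-100 buffer, in triplicate; single-point 100 μM screen run at 0 h and after 4-h preincubation.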

[2] = biological target: T1, HsDHODH (Homo sapiens, UniProt Q02127); assay: Selectivity assay: HsDHODH single-dose inhibition (DCIP reduction); assay type: biochemical
T1 construct: made in house
T1 sequence (Q02127 whole entry): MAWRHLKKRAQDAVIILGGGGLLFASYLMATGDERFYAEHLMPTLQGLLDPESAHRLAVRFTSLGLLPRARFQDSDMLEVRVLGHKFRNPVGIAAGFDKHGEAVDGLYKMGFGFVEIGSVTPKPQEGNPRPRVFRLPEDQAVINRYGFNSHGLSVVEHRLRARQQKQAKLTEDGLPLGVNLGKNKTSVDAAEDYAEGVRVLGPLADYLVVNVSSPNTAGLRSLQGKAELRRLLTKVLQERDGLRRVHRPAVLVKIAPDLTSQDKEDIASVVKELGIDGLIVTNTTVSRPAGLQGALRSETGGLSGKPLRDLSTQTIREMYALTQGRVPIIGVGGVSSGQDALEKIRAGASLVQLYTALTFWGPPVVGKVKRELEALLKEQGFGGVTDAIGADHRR
Summary of the method: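 Single-dose format, run in triplicate: His-purified HsDHODH (20 nM final) started by adding reaction buffer, absorbance at 610 nm (DCIP) recorded for 60 s at 3-s intervals. Initial rates converted to percent of no-compound control activity.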

[3] = Cell viability / cytotoxicity assay (PrestoBlue, 72 h); assay type: cell-based; conditions: human; THP-1 cell line, 72 h, max 200 μM; read-out: CC50
Summary of the method: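 Viability was measured with PrestoBlue fluorescence (560/590 nm, 2 h) after 72 h compound exposure at 37 °C. Test concentrations descended from 200 μM. The THP-1 monocytes had first been differentiated with 150 ng/mL phorbol myristate acetate for 48 h, then rested 24 h.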

[4] = for Raw data: analyte peak area, T=0: 0 min; for Raw data: analyte peak area, T=0 / Raw data: analyte peak area, T=5 / Raw data: analyte peak area, T=10 / Raw data: analyte peak area, T=20 / Raw data: analyte peak area, T=30 / Raw data: analyte peak area, T=60: raw LC-MS area; for Raw data: analyte peak area, T=5: 5 min; for Raw data: analyte peak area, T=10: 10 min; for Raw data: analyte peak area, T=20: 20 min; for Raw data: analyte peak area, T=30: 30 min; for Raw data: analyte peak area, T=60: 60 min
[5] = in vitro
Experimental: Solutions of the compounds were prepared in duplicate by diluting the stock solutions (10 mM) in phosphate buffered saline (PBS) pH 7.4 at a final concentration of 10 μM (5% DMSO). The solutions diluted in PBS pH 7.4 were then added to the donor portion of the plate (300 μL/well), while in the acceptor portion PBS pH 7.4 (200 μL/well) was added. The two portions of the plate were then coupled, and the system was incubated for 6 h at room temperature. Samples of the initial donor solution (T0) were collected at the beginning (T0) and stored at 5 °C. The final concentrations of compounds in the donor, acceptor and T0 wells were quantified by LC-MS/MS.

[6] = in vitro; conditions: microsomes; for microsomal CLint at 1 μM / remaining at 5 min, 1 μM: male, CD1, mouse; for remaining at 5 min, 1 μM / remaining at 10 min, 1 µM / remaining at 20 min, 1 µM / remaining at 0.5 h, 1 µM / remaining at 1 h, 1 µM: pH 7.4, % Remaining; for remaining at 5 min, 1 μM: T=5 min; for remaining at 10 min, 1 µM / remaining at 20 min, 1 µM / remaining at 0.5 h, 1 µM / remaining at 1 h, 1 µM: mouse; for remaining at 10 min, 1 µM: T=10 min; for remaining at 20 min, 1 µM: T=20 min; for remaining at 0.5 h, 1 µM: T=30 min, 30 min; for remaining at 1 h, 1 µM: T=60 min, 60 min
[7] = Mouse liver microsome stability in the absence of cofactors (NCF); conditions: 60 min, no cofactor (NCF); for Raw data: analyte peak area, T=60 NCF: mouse liver microsomes, raw LC-MS area; for remaining at 1 h, 1 µM: mouse, microsomes, pH 7.4, % Remaining, T=60 NCF
[8] = 0 h, pH 8.15, read-out: LbDHODH Activity±SD (%)
[9] = 4 h, pH 8.15, read-out: LbDHODH Activity±SD (%)
[10] = read-out: Single dose (0h) % activity
[11] = read-out: Single dose (4h) % activity
[12] = mouse liver microsomes, replicate 1 (left block)
[13] = mouse liver microsomes, replicate 2 (right block)
[14] = average of n=2, 10µM, PBS pH 7.4/7.4, 6h at room temperature
[15] = n=1, mouse liver microsomes, n=1
[16] = n=2, mouse liver microsomes, n=2

With `O=C1NC(=O)C(=C/C=C/c2ccccc2)C(=O)N1` [2i, (E)-5-(3-Phenylallylidene)pyrimidine-2,4,6(1H,3H,5H)-trione] the activity at 0.0976562 µM [1, 8] was 80 ± 11%, the activity at 0.195312 µM [1, 8] was 83 ± 14% and the activity at 0.390625 µM [1, 8] was 71 ± 17%. The activity at 0.78125 µM [1, 8] was 72 ± 12%, the activity at 1.5625 µM [1, 8] was 17 ± 4% and the activity at 3.125 µM [1, 8] was 11 ± 3%. The activity at 6.25 µM [1, 8] was 12 ± 3%, the activity at 12.5 µM [1, 8] was 4 ± 1% and the activity at 25 µM [1, 8] was 7 ± 3%. It also gave an activity at 50 µM [1, 8] of 4 ± 1%, an activity at 100 µM [1, 8] of 6 ± 1% and an activity at 200 µM [1, 8] of 1 ± 0.1%. It also gave an activity at 0.0976562 µM [1, 9] of 94 ± 19%, an activity at 0.195312 µM [1, 9] of 68 ± 11% and an activity at 0.390625 µM [1, 9] of 51 ± 9%. It also gave an activity at 0.78125 µM [1, 9] of 38 ± 9%, an activity at 3.125 µM [1, 9] of 10 ± 3% and an activity at 12.5 µM [1, 9] of 4 ± 1%. The activity at 50 µM [1, 9] was 16 ± 0.5%, the activity at 200 µM [1, 9] was 3 ± 0.4% and the IC50 ([1]; IC50 0 h, without preincubation) was 900 ± 300 nM. The IC50 ([1]; IC50 4 h, 4-h preincubation) was 500 ± 100 nM, the activity at 100 µM [1, 10] was 1.1 ± 0.2% and the activity at 100 µM [1, 11] was 3 ± 2%. The inhibition at 100 µM ([1]; read-out: enzyme inhibition) was 97%, the “inhibition of HsDHODH in single-dose assays” value ([2]; 100 μM, with or without 4-h incubation) was “no inhibition” and the activity at 100 µM [2, 10] was 93 ± 11%. For the same compound, the activity at 100 µM [2, 11] was 91 ± 9%, the CC50 at 72 h [3] was 193000 ± 67000 nM and the “Calculated T-half (min), Average” value ([4]; mouse liver microsomes (CD1 male), 0.4 mg/ml protein, test conc 1 µM, average of n=1 and n=2) was 2.7 min. The “Calculated T-half (min), n=1” value ([4]; mouse liver microsomes (CD1 male), 0.4 mg/ml protein, test conc 1 µM, replicate n=1) was 2.74 min and 2.7 min, the “Calculated T-half (min), n=2” value ([4]; mouse liver microsomes (CD1 male), 0.4 mg/ml protein, test conc 1 µM, replicate n=2) was 2.73 min and 2.7 min and the “Raw data: analyte peak area, T=0” value [4, 12] was 4760. The “Raw data: analyte peak area, T=0” value [4, 13] was 4151, the “Modified T-half (min), Average” value ([4]; mouse liver microsomes, 0.4 mg/ml, 1 µM, average, limited to T Half range 3.00 - […]) was less than 3.0 min and the “Remarks (mouse microsomal stability study)” value ([4]; mouse liver microsomes, 0.4 mg/ml, 1 µM, NCF = no cofactor control) was “Very fast metabolism; Low NCF”. The “Raw data: analyte peak area, T=5” value [4, 12] was 1438, the “Raw data: analyte peak area, T=5” value [4, 13] was 1160 and the “Raw data: analyte peak area, T=10” value [4, 12] was 0. The “Raw data: analyte peak area, T=10” value [4, 13] was 0, the “Raw data: analyte peak area, T=20” value [4, 12] was 0 and the “Raw data: analyte peak area, T=20” value [4, 13] was 0. The “Raw data: analyte peak area, T=30” value [4, 12] was 0, the “Raw data: analyte peak area, T=30” value [4, 13] was 0 and the “Raw data: analyte peak area, T=60” value [4, 12] was 0. For the same compound, the “Raw data: analyte peak area, T=60” value [4, 13] was 0, the “mouse liver microsomes T-half” value ([4]; mouse liver microsomes, NADPH, 1 μM) was less than 3.0 min and the recovery at 6 h, 10 µM ([5]; PAMPA, pH 7.4, % Recovery n=1, replicate n=1, 10µM, PBS pH 7.4/7.4, 6h at room temperature) was 14.3%. It also gave a recovery at 6 h, 10 µM ([5]; PAMPA, pH 7.4, % Recovery n=2, replicate n=2, 10µM, PBS pH 7.4/7.4, 6h at room temperature) of 15.8%, a recovery at 6 h, 10 µM ([5]; PAMPA, pH 7.4, Avg % Recovery, average of n=2, 10µM, PBS pH 7.4/7.4, 6h at room temperature) of 15% and a Papp ([5]; PAMPA, pH 7.4, permeability, PBS pH 7.4, 10 μM, 6 h) of 5.75 ×10⁻⁶ cm/s. For the same compound, the “Avg Log Pe (cm/sec)” value [5, 14] was -5.2 cm/sec and -5.24 cm/sec, the “Avg Pe” value [5, 14] was 5.75 ×10⁻⁶ cm/s and the “LogPe (cm/sec) n1” value ([5]; replicate n1, calculation section, 10µM, PBS pH 7.4/7.4, 6h) was -5.25 cm/sec. The “LogPe (cm/sec) n2” value ([5]; replicate n2, calculation section, 10µM, PBS pH 7.4/7.4, 6h) was -5.23 cm/sec, the “Pe (nm/sec) n=1” value ([5]; replicate n=1, 10µM (5% DMSO), PBS pH 7.4/7.4, 6h at room temperature, LC-MS/MS) was 56.6 nm/s and 56.58 nm/s and the “% Recovery n=1” value ([5]; replicate n=1, 10µM, PBS pH 7.4/7.4, 6h at room temperature) was 14.26%. The “Pe (nm/sec) n=2” value ([5]; replicate n=2, 10µM (5% DMSO), PBS pH 7.4/7.4, 6h at room temperature, LC-MS/MS) was 58.4 nm/s and 58.42 nm/s, the “% Recovery n=2” value ([5]; replicate n=2, 10µM, PBS pH 7.4/7.4, 6h at room temperature) was 15.77% and the microsomal CLint at 1 μM ([6]; pH 7.4) was greater than 578 µL/min/mg. It also gave a remaining at 5 min, 1 μM [6, 15] of 28.2%, a remaining at 5 min, 1 μM [6, 16] of 28.1% and a microsomal CLint at 1 μM ([6]; pH 7.4, mouse liver microsomes CLint, app, mouse liver microsomes, NADPH, 1 μM) greater than 578 µL/min/mg. It also gave a remaining at 10 min, 1 µM [6, 15] of 0%, a remaining at 10 min, 1 µM [6, 16] of 0% and a remaining at 20 min, 1 µM [6, 15] of 0%. For the same compound, the remaining at 20 min, 1 µM [6, 16] was 0%, the remaining at 0.5 h, 1 µM [6, 15] was 0% and the remaining at 0.5 h, 1 µM [6, 16] was 0%. For the same compound, the remaining at 1 h, 1 µM [6, 15] was 0%, the remaining at 1 h, 1 µM [6, 16] was 0% and the “Raw data: analyte peak area, T=60 NCF” value ([7]; replicate 1 (left block)) was 1230. For the same compound, the “Raw data: analyte peak area, T=60 NCF” value ([7]; replicate 2 (right block)) was 835, the remaining at 1 h, 1 µM [7, 15] was 26.3% and the remaining at 1 h, 1 µM [7, 16] was 19.3%.
